Tested on: 855422-203-R-J1-PDC complex spheroids, viability
Assay: Anticancer human tumor 855422-203-R-J1-PDC patient-derived bladder carcinoma cell line growth inhibition [CLK]
Conditions: for IC50: curve of first compound; for viability, T/C: stronger effect = lower value
Text: A high-throughput screen of multi-cell type tumor spheroids was designed to identify active combinations of […] and targeted small molecules. Complex spheroids include a stromal component modeled by human endothelial cells (HUVEC) and fibroblasts modeled by human mesenchymal stem cells (MSCs). The concentration ranges selected for each drug and investigational agent were based upon clinically achievable concentrations if the clinical Cmax of the agent was known.
Compounds. The drugs and investigational agents: cirtuvivint (SM08502; NSC835563), CC-671 (NSC850746), vemurafenib (NSC761431), tapotoclax (NSC804041), sotorasib (NSC818433), adagrasib (NSC831453), MRTX-1133 (NSC836407), BAY2416964 (NSC825713), copanlisib (NSC816437), inavolisib (NSC800729), abemaciclib (NSC768073), osimertinib (NSC779217), entinostat (NSC756642), eltanexor (KPT-8602, NSC794443), venetoclax (NSC766270), ceralasertib (NSC777638), bortezomib (NSC756655), olaparib (NSC753686), talazoparib (NSC767125), alisertib (NSC759677), peposertib (NSC802822), gemcitabine (NSC613327), 5-fluorouracil (NSC19893), SN-38 (NSC673596), oxaliplatin (NSC266046), paclitaxel (NSC125973), and doxorubicin (NSC123127), were obtained from the National Cancer Institute (NCI) Developmental Therapeutics Program Chemical Repository. The FDA-approved anticancer drug set is available from the Developmental Therapeutics Program at https://dtp.cancer.gov/organization/dscb/obtaining/available plates.htm. […] The stock solutions were prepared in dimethyl sulfoxide (DMSO, Sigma-Aldrich, St. Louis, MO, cat. D2650), except for the platinum complexes which were prepared in saline (Quality Biological, Gaithersburg, MD, cat. 114-055-101), at 800-fold the tested concentration and stored at -70 degrees C prior to their use. All drugs and investigational agents were tested over a range starting from a high concentration at or near the clinical Cmax and decreasing in half-log increments. If the clinical Cmax for an agent had not been determined, the highest concentration tested was 10 microM.
Cell Culture. All cells were maintained in an incubator at 37 degrees C and 5% CO2 with 95% humidity. The PDC lines were cultured according to standard operating procedures established by the NCI PDMR. Briefly, all PDCs were thawed and cultured in Matrigel-coated flasks prepared with a working solution of 1X Ham's F-12 nutrient mix, without supplementation (Invitrogen, Waltham, MA, cat. 11765054), 100 U/mL penicillin-streptomycin (Invitrogen, cat. 15140122), and 2.5% Matrigel (Corning Inc., Corning, NY, cat. 354248) for the first three passages. The 947758-054-R-J2-PDC line was cultured in 6B/Colon 1A media, which includes advanced DMEM/F-12 (Thermo Fisher Scientific, cat. 12634028), 10 mM HEPES (Thermo Fisher Scientific, cat. 15630080), 1X GlutaMAX supplement (Thermo Fisher Scientific, cat. 35050061), 0.1 mg/mL primocin (InvivoGen, cat. ant-pm-2), 10% defined fetal bovine serum, heat inactivated (HyClone Laboratories Inc., cat. SH30070.03HI), 1.25 mM N-Acetyl-L-cysteine (Sigma-Aldrich, cat. A9165), 10 mM nicotinamide (Sigma-Aldrich, cat. N0636), 1X B-27 supplement (Thermo Fisher Scientific, cat. 17504044), 1X N-2 supplement (Thermo Fisher Scientific, cat. 17502048), and 10 microM Y-27632 dihydrochloride (Tocris Bioscience, cat. 1254). The 876862-298-R-J1-PDC was cultured in 6E media, which includes all 6B/Colon 1A media components plus 50% L-WRN conditioned media (ATCC, cat. CRL-3276), 50 ng/mL recombinant human EGF recombinant protein (hEGF; Thermo Fisher Scientific, cat. PHG0311), 10 ng/mL recombinant human fibroblast growth factor 10 (hGFG-10; PeproTech, cat. 100-26), 1 ng/mL recombinant human fibroblast growth factor 2 (hFGF-2; PeproTech, cat. 100-18B), and 1 µM prostaglandin E2 (PGE2; Tocris, cat. 2296). The 227483-062-R1-J1-PDC line was cultured in Panc media, containing all 6E components except hFGF-2, with the addition of 500 nM SB-431542 (Selleckchem, cat. S1067) and 10 nM gastrin (Tocris, cat. 3006). […]
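Note: spheroids exposed to drugs for seven days before readout.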
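Throughout, for viability, T/C: 100% = DMSO vehicle control wells.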

C#Cc1c(F)ccc2cc(O)cc(-c3ncc4c(N5CC6CCC(C5)N6)nc(OCC56CCCN5CC(F)C6)nc4c3F)c12 (configuration not stated) + CN1CCN(c2cc(C(=O)Nc3cc4cc(-c5cnn(C)c5)ccc4cn3)ccn2)CC1
IC50 (second compound 0.0316 µM): > 10000 nM
IC50 (second compound 0.1 µM): > 10000 nM
IC50 (second compound 0.316 µM): < 31.6 nM
IC50 (second compound 1 µM): < 31.6 nM
IC50 (second compound 3.16 µM): < 31.6 nM
IC50 (second compound 10 µM): < 31.6 nM
viability, T/C (second compound 0.0316 µM, first compound 0.0316 µM): 106%
viability, T/C (second compound 0.0316 µM, first compound 0.1 µM): 98.8%
viability, T/C (second compound 0.0316 µM, first compound 0.316 µM): 119%
viability, T/C (second compound 0.0316 µM, first compound 1 µM): 98.8%
viability, T/C (second compound 0.0316 µM, first compound 3.16 µM): 104%
viability, T/C (second compound 0.0316 µM, first compound 10 µM): 113%
viability, T/C (second compound 0.1 µM, first compound 0.0316 µM): 84.4%
viability, T/C (second compound 0.1 µM, first compound 0.1 µM): 84.4%
viability, T/C (second compound 0.1 µM, first compound 0.316 µM): 85.1%
viability, T/C (second compound 0.1 µM, first compound 1 µM): 89.2%
viability, T/C (second compound 0.1 µM, first compound 3.16 µM): 93.3%
viability, T/C (second compound 0.1 µM, first compound 10 µM): 81.9%
viability, T/C (second compound 0.316 µM, first compound 0.0316 µM): 13%
viability, T/C (second compound 0.316 µM, first compound 0.1 µM): 12.4%
viability, T/C (second compound 0.316 µM, first compound 0.316 µM): 14.8%
viability, T/C (second compound 0.316 µM, first compound 1 µM): 15.1%
viability, T/C (second compound 0.316 µM, first compound 3.16 µM): 14.9%
viability, T/C (second compound 0.316 µM, first compound 10 µM): 8.68%
viability, T/C (second compound 1 µM, first compound 0.0316 µM): 0.86%
viability, T/C (second compound 1 µM, first compound 0.1 µM): 0.58%
viability, T/C (second compound 1 µM, first compound 0.316 µM): 0.22%
viability, T/C (second compound 1 µM, first compound 1 µM): 0.24%
viability, T/C (second compound 1 µM, first compound 3.16 µM): 0.22%
viability, T/C (second compound 1 µM, first compound 10 µM): 0.17%
viability, T/C (second compound 3.16 µM, first compound 0.0316 µM): 0.39%
viability, T/C (second compound 3.16 µM, first compound 0.1 µM): 0.72%
viability, T/C (second compound 3.16 µM, first compound 0.316 µM): 0.49%
viability, T/C (second compound 3.16 µM, first compound 1 µM): 0.38%
viability, T/C (second compound 3.16 µM, first compound 3.16 µM): 1.64%
viability, T/C (second compound 3.16 µM, first compound 10 µM): 0.18%
viability, T/C (second compound 10 µM, first compound 0.0316 µM): 0.42%
viability, T/C (second compound 10 µM, first compound 0.1 µM): 0.85%
viability, T/C (second compound 10 µM, first compound 0.316 µM): 0.3%
viability, T/C (second compound 10 µM, first compound 1 µM): 0.35%
viability, T/C (second compound 10 µM, first compound 3.16 µM): 0.3%
viability, T/C (second compound 10 µM, first compound 10 µM): 0.2%

— PubChem BioAssay AID2060609 (Molecular Pharmacology Branch, DTP, NCI, 2025)
